Experimental data from patent EP4717691A1, “USE OF BMPR1B INHIBITOR IN INDUCED DEVELOPMENT, AND INDUCTION CULTURE MEDIUM” (Iregene Therapeutics Co., Ltd, priority 2023, dated 2024).

Tests used:
BMPR2 = target: T1, BMPR2 (Homo sapiens, UniProt Q13873); test: Kinase activity assay (HTRF or ADP-Glo); assay type: biochemical
T1 sequence (Q13873 27-1038): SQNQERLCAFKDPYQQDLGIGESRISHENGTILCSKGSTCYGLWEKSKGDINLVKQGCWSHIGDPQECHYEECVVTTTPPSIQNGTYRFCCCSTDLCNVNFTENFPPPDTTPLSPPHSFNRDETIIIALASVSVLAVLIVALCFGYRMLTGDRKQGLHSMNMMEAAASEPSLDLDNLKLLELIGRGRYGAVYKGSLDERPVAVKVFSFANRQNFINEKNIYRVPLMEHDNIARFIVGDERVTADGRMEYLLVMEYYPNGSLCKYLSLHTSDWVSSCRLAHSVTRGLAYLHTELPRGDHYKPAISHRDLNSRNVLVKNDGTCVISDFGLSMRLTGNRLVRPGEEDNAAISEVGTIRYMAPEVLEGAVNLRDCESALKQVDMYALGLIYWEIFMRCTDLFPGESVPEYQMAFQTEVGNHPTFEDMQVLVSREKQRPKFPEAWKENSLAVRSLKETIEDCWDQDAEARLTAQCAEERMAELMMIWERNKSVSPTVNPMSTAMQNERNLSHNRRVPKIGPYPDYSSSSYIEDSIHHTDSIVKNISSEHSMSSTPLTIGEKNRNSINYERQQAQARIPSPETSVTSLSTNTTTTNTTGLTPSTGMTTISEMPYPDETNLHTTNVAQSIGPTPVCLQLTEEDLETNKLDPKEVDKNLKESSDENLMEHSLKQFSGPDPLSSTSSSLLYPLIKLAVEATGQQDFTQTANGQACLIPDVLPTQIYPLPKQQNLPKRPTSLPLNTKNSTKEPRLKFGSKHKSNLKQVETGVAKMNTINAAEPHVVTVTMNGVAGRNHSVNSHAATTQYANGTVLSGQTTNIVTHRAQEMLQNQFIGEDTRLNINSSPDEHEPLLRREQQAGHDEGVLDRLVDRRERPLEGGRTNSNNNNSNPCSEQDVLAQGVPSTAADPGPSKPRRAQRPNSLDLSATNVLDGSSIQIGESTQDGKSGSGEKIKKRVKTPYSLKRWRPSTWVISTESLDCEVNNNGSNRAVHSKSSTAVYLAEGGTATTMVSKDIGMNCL
Experimental: (§1) A total of 330 kinase candidates (15-50 nM, 2.5 µL) were mixed with compound II-1 (2.5 mM, 25 nL, prepared in DMSO) and incubated at 25 °C for 10 minutes. Then, a mixture of kinase peptide substrate (0.2 mg/mL; supplier: GenScript) and ATP (10-60 µM; supplier: Promega; product number: V915B) was added (total 2.5 µL, prepared in assay buffer), and the reaction was carried out at 25 °C for 60-120 minutes. Finally, the reaction products were quantified using HTRF1 or ADP-Glo2 methods. During the kinase activity assay, the consumption of each substrate was kept below 10%, and each kinase assay was performed in duplicate.

TGFBR1 = target: T2, TGFBR1 (Homo sapiens, UniProt P36897); test: Kinase activity assay (HTRF or ADP-Glo); assay type: biochemical
T2 sequence (P36897 34-503): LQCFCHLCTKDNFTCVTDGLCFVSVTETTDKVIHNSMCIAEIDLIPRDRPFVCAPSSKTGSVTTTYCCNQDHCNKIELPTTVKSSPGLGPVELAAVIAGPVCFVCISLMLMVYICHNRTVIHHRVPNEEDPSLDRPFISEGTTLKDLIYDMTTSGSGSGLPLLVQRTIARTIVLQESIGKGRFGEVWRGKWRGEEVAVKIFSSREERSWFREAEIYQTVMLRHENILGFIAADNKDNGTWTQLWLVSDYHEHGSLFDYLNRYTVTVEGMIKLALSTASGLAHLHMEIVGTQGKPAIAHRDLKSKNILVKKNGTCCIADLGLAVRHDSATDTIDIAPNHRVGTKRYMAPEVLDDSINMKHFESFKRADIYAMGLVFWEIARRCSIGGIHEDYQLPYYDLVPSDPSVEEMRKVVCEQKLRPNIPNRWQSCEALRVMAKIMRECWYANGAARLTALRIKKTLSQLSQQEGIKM
Experimental: as §1

SMAD2/3 = test: Western blot of TGF signaling pathway in H1 cells; assay type: cell-based, human; details: 6 µL of 30 µM compound in 2 mL, within 24 hours of treatment, Figure 3
Experimental: (§2) The inhibitory effect of the pyrazolecarbonyl piperazinone compounds on the BMP signaling pathway was further validated by Western blot analysis. Commercial human pluripotent stem cell line H1 was seeded in a 6-well plate at 1.5 × 10^6 cells per well in 2 mL of culture medium. After one day of culture, the medium was replaced, and 6 µL of 30 µM pyrazolecarbonyl piperazinone compound II-1 was added. Cells were treated for 12, 24, and 36 hours, after which the cells were harvested and protein samples were prepared according to the instructions of a commercial kit (Beyotime Biotechnology; Cat. No. P0013). Western blot analysis was performed as described in the literature (H. Zhang et al., 2022; N. Zhang et al., 2021). […] Table 2. Antibody Information

pluripotent stem cell H9 = test: Neural induction of H9 cells, marker gene mRNA by RNA-seq; assay type: cell-based, human; details: H9, increasing concentrations, day 7 and day 14, P < 0.05 t-test
Experimental: (§3) The induction medium comprises Dulbecco's Modified Eagle Medium (DMEM), Minimum Essential Medium Non-Essential Amino Acids (MEM NEAA, Cat. No. 11140076, Thermo Fisher), 4-Hydroxy-TEMPO (50 µM), D(+)-galactose (12.5 µg/mL), vitamin E (1 µg/mL), vitamin B12 (1.2 µM), vitamin C (64 mg/L), progesterone (6.3 ng/mL), 1,4-butanediamine (23 µg/mL), luteolin (60 µM), sodium chloride (0.5 g/L), […] (13.6 µg/L), insulin (22 µg/mL), recombinant human transferrin (100 ng/mL), and the BMPR1B inhibitor of the present invention (induction medium A uses BMPR1B inhibitor II-1; induction medium B uses BMPR1B inhibitor II-13).
(§4) Commercial human pluripotent stem cell lines H1, H9, and induced pluripotent stem cells (iPSCs) were used. The iPSCs were prepared according to the "reprogramming medium for the culture of reprogrammed iPSCs" using CD34+ cells (CN109628383A, Example 2). T25 culture flasks were coated with Matrigel (STEMCELL Technologies) and incubated at 37°C for at least one hour. Cells were seeded at 1 × 10^6 per T25 flask for expansion and passaging.
(§5) 6-well plates were coated with 50 µg/mL poly-L-lysine (SIGMA, Cat. No. P6407) and incubated at 37°C for at least 3 hours, followed by coating with 5 µg/mL laminin (SIGMA ALDRICH, Cat. No. 12020) and further incubation at 37°C for at least 3 hours. […]

BMPR1B kinase = BMPR1B kinase (Homo sapiens, UniProt O00238); test: Kinase activity screening (330 kinases, HTRF or ADP-Glo); assay type: biochemical; details: compound 2.5 mM, 25 nL in DMSO added to 5 µL reaction; Figure 1A
Experimental: as §1

SMAD1/5/8 = test: Western blot of BMP signaling pathway in H1 cells; assay type: cell-based, human; details: 6 µL of 30 µM compound in 2 mL, within 24 hours of treatment, Figure 3
Experimental: as §2

H1 cells = test: Neural induction of H1 cells, marker gene mRNA by RNA-seq; assay type: cell-based, human; details: H1, increasing concentrations, day 7 and day 14; Figure 5
Experimental: as §3, §4, §5

[1] = test system: induced pluripotent stem cells (iPSCs); test: Neural induction of iPSCs, marker gene mRNA by RNA-seq; assay type: cell-based, human; details: iPSCs vs untreated control, day 7 and day 14, dose-dependent; Figure 6
Experimental: as §3, §4
6-well plates were coated with 50 µg/mL poly-L-lysine (SIGMA, Cat. No. P6407) and incubated at 37°C for at least 3 hours, followed by coating with 5 µg/mL laminin (SIGMA ALDRICH, Cat. No. 12020) and further incubation at 37°C for at least 3 hours. When pluripotent stem cells reached 70% confluency, they were digested with EDTA at 37°C for 5 minutes, and digestion was terminated using DMEM. Cells were washed, centrifuged, and reseeded in T25 flasks at 2 × 10^5 cells per flask. Induction was carried out using the aforementioned induction media: H9 cells were induced with induction medium A, while H1 cells and iPSCs were induced with induction medium B. The medium was refreshed daily until day 14.
Samples were collected on day 7 and day 14 of induction. RNA was processed using the VAHTS Universal V8 RNA-seq Library Prep Kit for Illumina (Vazyme, NR605-01/02), and sequencing was performed on an Illumina platform. […]

[2] = at the same concentration as the screen
[3] = different concentrations, up to 12.5 µM, threefold serial dilution, Figure 1B, C

Sequence of BMPR1B kinase (O00238 14-502): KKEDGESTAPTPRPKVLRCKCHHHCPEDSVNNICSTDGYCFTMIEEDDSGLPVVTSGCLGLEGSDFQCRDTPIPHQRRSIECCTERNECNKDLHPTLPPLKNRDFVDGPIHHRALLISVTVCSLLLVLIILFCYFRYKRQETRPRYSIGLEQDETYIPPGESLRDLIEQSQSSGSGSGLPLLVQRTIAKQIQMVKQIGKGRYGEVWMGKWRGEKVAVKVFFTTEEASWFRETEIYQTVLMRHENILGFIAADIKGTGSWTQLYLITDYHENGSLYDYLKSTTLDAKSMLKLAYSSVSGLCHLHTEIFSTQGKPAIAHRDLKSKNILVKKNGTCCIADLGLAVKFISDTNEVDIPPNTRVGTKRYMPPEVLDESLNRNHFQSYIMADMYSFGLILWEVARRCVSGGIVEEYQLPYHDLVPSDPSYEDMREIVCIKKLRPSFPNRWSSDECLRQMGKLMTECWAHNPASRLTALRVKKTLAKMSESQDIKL

O=C1CN(C(=O)c2n[nH]c3c2CCC3)[C@H]2CCCC[C@@H]2N1 [II-1, (4aS,8aS)-4-(1,4,5,6-tetrahydrocyclopenta[c]pyrazole-3-carbonyl)octahydroquinoxalin-2(1H)-one]
inhibition of kinase activity of BMPR2 (BMPR2; [2]): did not inhibit
inhibition of BMPR2 kinase (BMPR2; [3]): no inhibition
inhibition of kinase activity of TGFBR1 (TGFBR1; [2]): did not inhibit
inhibition of TGFBR1 kinase (TGFBR1; [3]): no inhibition
phosphorylation of SMAD2/3 (SMAD2/3): did not inhibit
neural progenitor marker PAX6 expression (pluripotent stem cell H9): corresponding increase
pluripotency marker NANOG expression (pluripotent stem cell H9): dose-dependent decrease
inhibitory activity against BMPR1B kinase (BMPR1B kinase): significant inhibitory activity
phosphorylation levels of SMAD1/5/8 (SMAD1/5/8): significantly suppressed

O=C1CN(C(=O)c2n[nH]c3ccccc23)[C@H]2CCCC[C@@H]2N1 [II-13, (4aS,8aS)-4-(1H-indazole-3-carbonyl)octahydroquinoxalin-2(1H)-one]
glial progenitor marker gene Sox9 expression (H1 cells): dose-dependent response
neural marker gene MAP2 expression (H1 cells): dose-dependent response
neural differentiation marker VIM expression [1]: significantly increased expression
neural progenitor marker Sox1 expression [1]: significantly increased expression
neural progenitor marker Sox5 expression [1]: significantly increased expression
